Laboratory results taken from patent US9126060B2, “Cosmetic use of geranylgeranyl-2-propanol” (SEDERMA, priority 2010, dated 2015).
Blank lines part the entries; values can stand above or below the compound they belong to.

Assays:
human melanocytes = test: Melanin content of human melanocytes; format: cell-based; details: 0.03%; positive control
Procedure: (§1) Principle: Human melanocytes are seeded and placed in contact with the GGP for 5 days. After incubation, the residual tyrosinase activity and total melanin content were measured in cell homogenates, and then divided by the number of cells (melanin) or to the protein amount (tyrosinase).

tyrosinase = target: T1, tyrosinase (Homo sapiens, UniProt P14679); test: Residual tyrosinase activity in human melanocytes; format: cell-based; details: 0.03%; positive control
T1 construct: endogenous in cells; host or cells: human melanocytes
T1 sequence (P14679 19-529): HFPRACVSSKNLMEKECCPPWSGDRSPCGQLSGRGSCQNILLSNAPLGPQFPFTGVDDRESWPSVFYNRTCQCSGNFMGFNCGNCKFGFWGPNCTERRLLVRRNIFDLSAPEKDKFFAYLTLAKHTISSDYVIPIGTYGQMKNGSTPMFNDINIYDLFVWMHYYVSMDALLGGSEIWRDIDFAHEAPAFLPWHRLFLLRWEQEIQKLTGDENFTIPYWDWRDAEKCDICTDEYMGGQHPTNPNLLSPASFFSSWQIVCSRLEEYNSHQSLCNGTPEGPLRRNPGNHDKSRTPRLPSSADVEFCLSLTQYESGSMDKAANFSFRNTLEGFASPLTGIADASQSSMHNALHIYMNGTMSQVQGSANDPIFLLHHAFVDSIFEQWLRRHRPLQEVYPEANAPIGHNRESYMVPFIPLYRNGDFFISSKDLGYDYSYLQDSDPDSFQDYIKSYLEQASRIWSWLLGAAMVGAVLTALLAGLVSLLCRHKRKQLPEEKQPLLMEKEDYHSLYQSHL
Procedure: as §1

human dermal fibroblasts = test: Senescence associated β-galactosidase activity in fibroblasts after oxidising stress (FDG fluorimetry); format: cell-based; details: 120 ppm; positive control
Procedure: Principle: Proliferative human dermal fibroblasts were contacted or not with the GGP for 72 hours in a growth medium. After this first incubation, the cells were subjected for 5 days to an oxidative stress daily, one hour each, in a basic medium, common to all cultures. This stress is known to create a SIPS and to induce a strong increase in β-galactosidase activity in the stressed culture compared to an unstressed culture. Between two stress cells are returned to the growth medium with or without the substance tested. After the fifth stress, β-galactosidase activity is evaluated.
Evaluation of β-galactosidase activity is done after fixing the layers. They are put in contact with a substrate of β-galactosidase nonfluorescent FDG (fluorescein di-β-galactopyranoside), which will release a fluorescent compound upon hydrolysis by β-galactosidase. The emitted fluorescence is quantified in a fluorometer. It will increase with the amount of senescent cells present in culture. The relative activity of β-galactosidase thus found is 2974+/−957 UFA/million cells in a proliferative culture and increases by a factor 5 (p<0.01) in a culture little to not proliferative.

presenescent fibroblasts = test: Mitochondrial membrane potential of presenescent fibroblasts (dye ratio λ520/λ590); format: cell-based; details: 120 ppm
Description: It is possible to measure the membrane potential through a specific membrane dye. Depending on the level of the membrane potential, this dye is rather present as monomer (emission fluorescence at 520 nm) or rather in the multimetric form (fluorescence emission at 590 nm). High membrane potential promotes a multimetric form.
The ratio λ520/λ590 varies inversely with the membrane potential. The lower the ratio is, the higher the membrane potential is. The increase in the ratio thus reflects a decrease in membrane potential. The ratio λ520/λ590 for young and proliferating cells is 2.97+/−0.17.
[…] After this period, the membrane potential of half of the cultures was measured.
The other half of the cultures underwent an oxidative stress (hydrogen peroxide) before measuring their membrane potential.

fibroblasts (FHN) = test: Intracellular peroxide level (DCFH-DA probe) in fibroblasts after SIPS; format: cell-based, human; details: 120 ppm
Procedure: Principle: Fibroblasts at confluence contacted or not with the GGP for several days, are subjected to oxidative stress by hydrogen peroxide in the presence or absence of the GGP. This stress is intended to induce premature senescence in cells.
After this initial stress, the cells were detached from the support and returned to culture at low density until confluence. They are then contacted or not with the compound of the invention for 24 hours. At this stage, each set of cultures (with or without the tested compounds) is divided into 2 lots. A first batch (not stressed) is evaluated directly for its concentration of intracellular peroxides (using the probe DCFH-DA). Simultaneously, the other batch (stressed) undergoes a second stress by hydrogen peroxide (weaker than the first) just before being evaluated in the same way regarding the concentration of intracellular peroxides.
The amount of fluorescence measured with this probe is directly proportional to the amount of peroxides present in the cells.

[1] = ORAC test (Oxygen-Radical Absorbance Capacity): fluorescein degradation by peroxyl radicals; format: biochemical; details: positive control, 10μ
Description: Principle: the ORAC test (“Oxygen-Radical Absorbance Capacity”) measures degradation by the oxidative way of a fluorescent molecule (fluorescein). Degradation of fluorescein by peroxyl radicals generated by AAPH (2,2′-azobis (2-amidinopropane) dichloride) induces a decrease in fluorescence measured by a spectrofluorometer during a degradation kinetic.
An antioxidant protects this fluorescein against this radical degradation. The decrease in fluorescence will be smaller and slower in the presence of the antioxidant than in its absence. The comparison between the parameters of the two kinetics makes it possible to calculate a percentage of protection against free radical degradation.

collagen I = test: Collagen I synthesis in presenescent fibroblasts (immunofluorescence, image analysis); format: cell-based, human; details: 10^−6%; positive control
Procedure: Principle: The collagen I synthesis was monitored in pre-senescent human dermal fibroblasts. These cells were cultured for 11 days with the GGP in a growth medium. Following this incubation, the cell layers were fixed and labeled by immunofluorescence, to visualize the network of collagen I and to quantify by image analysis on photographs. In parallel, quantification was performed on proliferating cells.

hyaluronic acid = test: Hyaluronic acid synthesis in human fibroblasts; format: cell-based; details: 10^−6%; positive control
Procedure: Principle: Human dermal fibroblasts were grown in plate for 24 hours. The cells are then placed in contact or not with GGP for 24 hours. Culture supernatants were collected and assayed for the amount of hyaluronic acid (HA) is then divided by the number of cells present on the layer. TGF-β1 is used as a positive control.

[2] = SIPS fibroblasts subjected to a second oxidant stress

Change (%) of tyrosinase activity vs control (tyrosinase): −33%
Compound: OC[C@H]1O[C@@H](Oc2ccc(O)cc2)[C@H](O)[C@@H](O)[C@@H]1O [Arbutine, reference compound]
Change (%) of melanin content vs control (human melanocytes): −40%

Compound: Cc1c(C)c2c(c(C)c1O)CCC(C)(C(=O)O)O2 (stereo not drawn) [Trolox, reference compound]
Change with regard to control (β-galactosidase) (human dermal fibroblasts): Positive control: Trolox 120 ppm = −45% (p < 0.05) | % of protection of the respiration potential (presenescent fibroblasts; no stress): +44%; nsd | ΔΨ loss with regard to non stressed young cells (presenescent fibroblasts; one week, no stress): 0.80 +/− 0.52 | Improvement of the respiration potential (presenescent fibroblasts; with oxidative stress): +43%; p < 0.05 | ΔΨ loss with regard to non stressed young cells (presenescent fibroblasts; with oxidative stress (hydrogen peroxide)): 3.18 +/− 1.16 | Change with regard to non stressed young cells (presenescent fibroblasts; with oxidative stress, control −100%): −57% | % Change/Control of endogen peroxides (fibroblasts (FHN); [2]): −85%; p < 0.01 | Endogen peroxides (fibroblasts (FHN); [2]): 158 +/− 7 UFA/million of cells | % Change/Control of endogen peroxides (fibroblasts (FHN); after SIPS, not stressed again): −43%; p < 0.01 | Endogen peroxides (fibroblasts (FHN); after SIPS, not stressed again): 57.5 +/− 3.8 UFA/million of cells | % of protection [1]: Positive control = Trolox 10μ = 94% (p < 0.01)

Compound: TGF-β: TGF-β1 is used as a positive control [reference compound]
collagen I synthesis, factor vs control (collagen I): Positive control: TGF-β at 10^−6%: ×8.3 times | % of change of hyaluronic acid vs control (hyaluronic acid): Positive control: TGF-β1 à 10^−6%: +206% (p < 0.01)
